Reference: the NIST ThermoML archive (doi:10.1016/j.jct.2012.03.003)

Assay: xn = mol fraction of the nth substance listed
Conditions: Liquid, Vibrating tube method

COc1cc2c(cc1O)CC1c3c(cc(O)c(OC)c3-2)CCN1C (stereo not given) [boldine] + CCCO
Conditions	mass density [kg/m3]
352.94 K, 17000 kPa, x1 = 0.0142	793.21
352.94 K, 18000 kPa, x1 = 0.0018	773.13
352.94 K, 18000 kPa, x1 = 0.0112	789.5
352.94 K, 18000 kPa, x1 = 0.0142	794.1
352.94 K, 19000 kPa, x1 = 0.0018	774.01
352.94 K, 19000 kPa, x1 = 0.0112	790.38
352.94 K, 19000 kPa, x1 = 0.0142	794.97
352.94 K, 20000 kPa, x1 = 0.0018	774.9
352.94 K, 20000 kPa, x1 = 0.0112	791.19
352.94 K, 20000 kPa, x1 = 0.0142	795.82
352.95 K, 1000 kPa, x1 = 0.0046	762.42
352.95 K, 1000 kPa, x1 = 0.0077	766.39
352.95 K, 2000 kPa, x1 = 0.0046	763.47
352.95 K, 2000 kPa, x1 = 0.0077	767.42
352.95 K, 3000 kPa, x1 = 0.0046	764.53
352.95 K, 3000 kPa, x1 = 0.0077	768.43
352.95 K, 4000 kPa, x1 = 0.0046	765.57
352.95 K, 4000 kPa, x1 = 0.0077	769.48
352.95 K, 5000 kPa, x1 = 0.0046	766.6
352.95 K, 5000 kPa, x1 = 0.0077	770.53
352.95 K, 6000 kPa, x1 = 0.0046	767.63
352.95 K, 6000 kPa, x1 = 0.0077	771.55
352.95 K, 7000 kPa, x1 = 0.0046	768.64
352.95 K, 7000 kPa, x1 = 0.0077	772.55
352.95 K, 8000 kPa, x1 = 0.0046	769.68
352.95 K, 8000 kPa, x1 = 0.0077	773.58
352.95 K, 9000 kPa, x1 = 0.0046	770.67
352.95 K, 9000 kPa, x1 = 0.0077	774.57
352.95 K, 10000 kPa, x1 = 0.0046	771.67
352.95 K, 10000 kPa, x1 = 0.0077	775.56
352.95 K, 11000 kPa, x1 = 0.0046	772.65
352.95 K, 11000 kPa, x1 = 0.0077	776.53
352.95 K, 12000 kPa, x1 = 0.0046	773.64
352.95 K, 12000 kPa, x1 = 0.0077	777.51
352.95 K, 13000 kPa, x1 = 0.0046	774.6
352.95 K, 13000 kPa, x1 = 0.0077	778.48
352.95 K, 14000 kPa, x1 = 0.0046	775.56
352.95 K, 14000 kPa, x1 = 0.0077	779.42
352.95 K, 15000 kPa, x1 = 0.0046	776.52
352.95 K, 15000 kPa, x1 = 0.0077	780.35
352.95 K, 16000 kPa, x1 = 0.0046	777.42
352.95 K, 16000 kPa, x1 = 0.0077	781.26
352.95 K, 17000 kPa, x1 = 0.0046	778.33
352.95 K, 17000 kPa, x1 = 0.0077	782.19
352.95 K, 18000 kPa, x1 = 0.0046	779.23
352.95 K, 18000 kPa, x1 = 0.0077	783.07
352.95 K, 19000 kPa, x1 = 0.0046	780.13
352.95 K, 19000 kPa, x1 = 0.0077	783.97
352.95 K, 20000 kPa, x1 = 0.0046	780.98
352.95 K, 20000 kPa, x1 = 0.0077	784.83
362.91 K, 1000 kPa, x1 = 0.0142	768.06
362.91 K, 2000 kPa, x1 = 0.0142	769.19
362.91 K, 3000 kPa, x1 = 0.0142	770.27
362.91 K, 4000 kPa, x1 = 0.0142	771.41
362.91 K, 5000 kPa, x1 = 0.0142	772.43
362.91 K, 6000 kPa, x1 = 0.0142	773.54
362.91 K, 7000 kPa, x1 = 0.0142	774.62
362.91 K, 8000 kPa, x1 = 0.0142	775.73
362.91 K, 9000 kPa, x1 = 0.0142	776.73
362.91 K, 10000 kPa, x1 = 0.0142	777.77
362.91 K, 11000 kPa, x1 = 0.0142	778.78
362.91 K, 12000 kPa, x1 = 0.0142	779.82
362.91 K, 13000 kPa, x1 = 0.0142	780.81
362.91 K, 14000 kPa, x1 = 0.0142	781.79
362.91 K, 15000 kPa, x1 = 0.0142	782.77
362.91 K, 16000 kPa, x1 = 0.0142	783.72
362.91 K, 17000 kPa, x1 = 0.0142	784.68
362.91 K, 18000 kPa, x1 = 0.0142	785.6
362.91 K, 19000 kPa, x1 = 0.0142	786.52
362.91 K, 20000 kPa, x1 = 0.0142	787.4
362.92 K, 1000 kPa, x1 = 0.0046	752.84
362.92 K, 1000 kPa, x1 = 0.0077	756.81
362.92 K, 2000 kPa, x1 = 0.0046	753.97
362.92 K, 2000 kPa, x1 = 0.0077	757.93
362.92 K, 3000 kPa, x1 = 0.0046	755.11
362.92 K, 3000 kPa, x1 = 0.0077	759.06
362.92 K, 4000 kPa, x1 = 0.0046	756.24
362.92 K, 4000 kPa, x1 = 0.0077	760.16
362.92 K, 5000 kPa, x1 = 0.0046	757.34
362.92 K, 5000 kPa, x1 = 0.0077	761.28
362.92 K, 6000 kPa, x1 = 0.0046	758.46
362.92 K, 6000 kPa, x1 = 0.0077	762.37
362.92 K, 7000 kPa, x1 = 0.0046	759.55
362.92 K, 7000 kPa, x1 = 0.0077	763.46
362.92 K, 8000 kPa, x1 = 0.0046	760.63
362.92 K, 8000 kPa, x1 = 0.0077	764.54
362.92 K, 9000 kPa, x1 = 0.0046	761.7
362.92 K, 9000 kPa, x1 = 0.0077	765.61
362.92 K, 10000 kPa, x1 = 0.0046	762.78
362.92 K, 10000 kPa, x1 = 0.0077	766.65
362.92 K, 11000 kPa, x1 = 0.0046	763.79
362.92 K, 11000 kPa, x1 = 0.0077	767.68
362.92 K, 12000 kPa, x1 = 0.0046	764.85
362.92 K, 12000 kPa, x1 = 0.0077	768.72
362.92 K, 13000 kPa, x1 = 0.0046	765.87
362.92 K, 13000 kPa, x1 = 0.0077	769.74
362.92 K, 14000 kPa, x1 = 0.0046	766.88
362.92 K, 14000 kPa, x1 = 0.0077	770.74
362.92 K, 15000 kPa, x1 = 0.0046	767.86
362.92 K, 15000 kPa, x1 = 0.0077	771.74
362.92 K, 16000 kPa, x1 = 0.0046	768.85
362.92 K, 16000 kPa, x1 = 0.0077	772.72
362.92 K, 17000 kPa, x1 = 0.0046	769.81
362.92 K, 17000 kPa, x1 = 0.0077	773.68
362.92 K, 18000 kPa, x1 = 0.0046	770.76
362.92 K, 18000 kPa, x1 = 0.0077	774.6
362.92 K, 19000 kPa, x1 = 0.0046	771.7
362.92 K, 19000 kPa, x1 = 0.0077	775.55
362.92 K, 20000 kPa, x1 = 0.0046	772.56
362.92 K, 20000 kPa, x1 = 0.0077	776.45
362.93 K, 1000 kPa, x1 = 0.0112	763.51
362.93 K, 2000 kPa, x1 = 0.0112	764.63
362.93 K, 3000 kPa, x1 = 0.0112	765.74
362.93 K, 4000 kPa, x1 = 0.0112	766.83
362.93 K, 5000 kPa, x1 = 0.0112	767.93
362.93 K, 6000 kPa, x1 = 0.0112	769
362.93 K, 7000 kPa, x1 = 0.0112	770.08
362.93 K, 8000 kPa, x1 = 0.0112	771.14
362.93 K, 9000 kPa, x1 = 0.0112	772.39
362.93 K, 10000 kPa, x1 = 0.0112	773.24
362.93 K, 11000 kPa, x1 = 0.0112	774.29
362.93 K, 12000 kPa, x1 = 0.0112	775.28
362.93 K, 13000 kPa, x1 = 0.0112	776.29
362.93 K, 14000 kPa, x1 = 0.0112	777.28
362.93 K, 15000 kPa, x1 = 0.0112	778.25
362.93 K, 16000 kPa, x1 = 0.0112	779.21
362.93 K, 17000 kPa, x1 = 0.0112	780.16
362.93 K, 18000 kPa, x1 = 0.0112	781.11
362.93 K, 19000 kPa, x1 = 0.0112	782.03
362.93 K, 20000 kPa, x1 = 0.0112	782.93
362.94 K, 1000 kPa, x1 = 0.0018	746.61
362.94 K, 2000 kPa, x1 = 0.0018	747.75
362.94 K, 3000 kPa, x1 = 0.0018	748.91
362.94 K, 4000 kPa, x1 = 0.0018	750.05
362.94 K, 5000 kPa, x1 = 0.0018	751.17
362.94 K, 6000 kPa, x1 = 0.0018	752.28
362.94 K, 7000 kPa, x1 = 0.0018	753.38
362.94 K, 8000 kPa, x1 = 0.0018	754.49
362.94 K, 9000 kPa, x1 = 0.0018	755.54
362.94 K, 10000 kPa, x1 = 0.0018	756.62
362.94 K, 11000 kPa, x1 = 0.0018	757.69
362.94 K, 12000 kPa, x1 = 0.0018	758.72
362.94 K, 13000 kPa, x1 = 0.0018	759.77
362.94 K, 14000 kPa, x1 = 0.0018	760.8
362.94 K, 15000 kPa, x1 = 0.0018	761.77
362.94 K, 16000 kPa, x1 = 0.0018	762.79
362.94 K, 17000 kPa, x1 = 0.0018	763.76
362.94 K, 18000 kPa, x1 = 0.0018	764.68
362.94 K, 19000 kPa, x1 = 0.0018	765.63
362.94 K, 20000 kPa, x1 = 0.0018	766.58
